According to US7097860B2, “Method and composition for treatment of inflammatory and inflammation-related disorders” (priority 2001, dated 2006):

How the values were obtained:
cow = experiment: Solution / magnesium in complicated cases with intoxication; assay type: in vivo
Procedure: For example, during calving of weak and strong contractions of the uterus, atony of the rumen, reticulum and abamasum, colic and constipation. In fact, after administration of the solution, the effect can be seen even in complicated cases when intoxication takes place, the temperature of the body is increased, and there is loss of appetite. In this situation, the cow starts to ruminate and the general condition improves in 10 to 15 minutes after administration of the solution.

inflammatory disorders = experiment: Magnesium sulfate in distilled water by intraperitoneal injection in a cow; assay type: in vivo; conditions: approximately 40 grams, cow of 500 kg
Excerpt: After several years of using magnesium salts, the dose was reduced to an average dose of 3–20 grams for a 500 kg cow to get the same therapeutic effect. Therefore, the intraperitoneal administration, compared to other methods of drug administration, is a safe method because it avoids the toxic side effects through first-pass hepatic metabolism which permits the organism to create the abundance of magnesium used for recovery and healing. In fact, the administered dose can be higher than the traditional toxic level doses.

monkeys = monkeys from six months old, double the normal dose; cited from earlier work
Dogs = conditions: up to 600 mg/kg IV, single dose; cited from earlier work
[1] = powder; cited from earlier work
rats [2] = conditions: reproduction studies in rats; cited from earlier work
[3] = tested on: parturient paresis in cows (milk fever), ketosis (acetonomia), and paraplegia gravidarum; experiment: Methenamine along with magnesium salts in parturient paresis, ketosis and paraplegia gravidarum; assay type: in vivo
Excerpt: Methenamine breaks down to formaldehyde and ammonia in areas of inflammation where formaldehyde acts as anti-inflammatory and bactericidal agent. Methenamine also increases membrane permeability, which helps to eliminate antibacterial toxic material from the body. […] After the fifteen minutes of administration, the condition of cows that had parturient paresis (milk fever), ketosis (acetonomia) started to improve and the cows began rumination again.

rats [4] = conditions: up to 600 mg/kg IV, single dose; cited from earlier work
rabbits = conditions: reproduction studies in rabbits; cited from earlier work
[5] = after administration of magnesium

With `[Mg+2]` [magnesium] the “day of complete recovery” value (cow; [5]) was “seventh”, the “day on which the general condition improved” value (cow; [5]) was “third” and the “day of estrus after administration” value (cow; cows that previously did not have estrus) was “seventh”.
For `O.O.O.O.O.O.O.O=S(=O)([O-])[O-].[Mg+2]` [magnesium sulfate, magnesium sulfate (MgSO4×7H2O)], the side effects (inflammatory disorders) was “without any side effects” and the treatment outcome (inflammatory disorders) was “successful treatment”.
In the case of `C1N2CN3CN1CN(C2)C3` [Methenamine hippurate], the adverse effects (monkeys) is listed as “without adverse effects”.
For `C1N2CN3CN1CN(C2)C3` [methenamine, methenamine (hexamethylenetetramine, C6H12N4)], the toxic effects (Dogs) is listed as “without evidence of toxic effects”, the solubility in water [1] is listed as “very soluble in water” and the “harm to the fetus” value (rats [2]) is listed as “have not revealed evidence of harm to the fetus”. The treatment outcome ([3]; 20 grams per 500 kg, along with magnesium salts, other therapies unsuccessful) was “successful treatment”, the “time after administration at which condition started to improve and rumination began” value ([3]; parturient paresis (milk fever), ketosis (acetonomia)) was “fifteen” and the toxic effects (rats [4]) was “without evidence of toxic effects”. The “harm to the fetus” value (rabbits) was “have not revealed evidence of harm to the fetus”.
